Measurements taken from BigSolDB 2.1.

## O=C(O)Cc1ccc([N+](=O)[O-])cc1
In DMAc, 283.15 K
  solubility (mole fraction): 0.0895
In DMAc, 288.15 K
  solubility (mole fraction): 0.1
In DMAc, 293.15 K
  solubility (mole fraction): 0.114
In DMAc, 298.15 K
  solubility (mole fraction): 0.131
In DMAc, 303.15 K
  solubility (mole fraction): 0.149
In DMAc, 308.15 K
  solubility (mole fraction): 0.169
In DMAc, 313.15 K
  solubility (mole fraction): 0.191
In DMAc, 318.15 K
  solubility (mole fraction): 0.216
In DMAc, 323.15 K
  solubility (mole fraction): 0.24
In DMAc, 328.15 K
  solubility (mole fraction): 0.271
In DMF, 283.15 K
  solubility (mole fraction): 0.161
In DMF, 288.15 K
  solubility (mole fraction): 0.178
In DMF, 293.15 K
  solubility (mole fraction): 0.2
In DMF, 298.15 K
  solubility (mole fraction): 0.225
In DMF, 303.15 K
  solubility (mole fraction): 0.251
In DMF, 308.15 K
  solubility (mole fraction): 0.28
In DMF, 313.15 K
  solubility (mole fraction): 0.311
In DMF, 318.15 K
  solubility (mole fraction): 0.342
In DMF, 323.15 K
  solubility (mole fraction): 0.377
In DMF, 328.15 K
  solubility (mole fraction): 0.417
In acetonitrile, 283.15 K
  solubility (mole fraction): 0.0193
In acetonitrile, 288.15 K
  solubility (mole fraction): 0.0223
In acetonitrile, 293.15 K
  solubility (mole fraction): 0.0266
In acetonitrile, 298.15 K
  solubility (mole fraction): 0.0312
In acetonitrile, 303.15 K
  solubility (mole fraction): 0.0375
In acetonitrile, 308.15 K
  solubility (mole fraction): 0.0449
In acetonitrile, 313.15 K
  solubility (mole fraction): 0.0535
In acetonitrile, 318.15 K
  solubility (mole fraction): 0.0639
In acetonitrile, 323.15 K
  solubility (mole fraction): 0.0761
In acetonitrile, 328.15 K
  solubility (mole fraction): 0.0918
In cyclohexane, 283.15 K
  solubility (mole fraction): 1.2e-05
In cyclohexane, 288.15 K
  solubility (mole fraction): 1.69e-05
In cyclohexane, 293.15 K
  solubility (mole fraction): 2.3e-05
In cyclohexane, 298.15 K
  solubility (mole fraction): 3.11e-05
In cyclohexane, 303.15 K
  solubility (mole fraction): 4.12e-05
In cyclohexane, 308.15 K
  solubility (mole fraction): 5.45e-05
In cyclohexane, 313.15 K
  solubility (mole fraction): 7.11e-05
In cyclohexane, 318.15 K
  solubility (mole fraction): 9e-05
In cyclohexane, 323.15 K
  solubility (mole fraction): 0.000113
In cyclohexane, 328.15 K
  solubility (mole fraction): 0.00014
In ethanol, 283.15 K
  solubility (mole fraction): 0.0758
In ethanol, 288.15 K
  solubility (mole fraction): 0.0849
In ethanol, 293.15 K
  solubility (mole fraction): 0.0979
In ethanol, 298.15 K
  solubility (mole fraction): 0.111
In ethanol, 303.15 K
  solubility (mole fraction): 0.128
In ethanol, 308.15 K
  solubility (mole fraction): 0.148
In ethanol, 313.15 K
  solubility (mole fraction): 0.17
In ethanol, 318.15 K
  solubility (mole fraction): 0.196
In ethanol, 323.15 K
  solubility (mole fraction): 0.223
In ethanol, 328.15 K
  solubility (mole fraction): 0.254
In ethyl acetate, 283.15 K
  solubility (mole fraction): 0.0309
In ethyl acetate, 288.15 K
  solubility (mole fraction): 0.0352
In ethyl acetate, 293.15 K
  solubility (mole fraction): 0.041
In ethyl acetate, 298.15 K
  solubility (mole fraction): 0.0487
In ethyl acetate, 303.15 K
  solubility (mole fraction): 0.0576
In ethyl acetate, 308.15 K
  solubility (mole fraction): 0.0694
In ethyl acetate, 313.15 K
  solubility (mole fraction): 0.0823
In ethyl acetate, 318.15 K
  solubility (mole fraction): 0.098
In ethyl acetate, 323.15 K
  solubility (mole fraction): 0.116
In ethyl acetate, 328.15 K
  solubility (mole fraction): 0.137
In ethylene glycol, 283.15 K
  solubility (mole fraction): 0.0168
In ethylene glycol, 288.15 K
  solubility (mole fraction): 0.0185
In ethylene glycol, 293.15 K
  solubility (mole fraction): 0.0213
In ethylene glycol, 298.15 K
  solubility (mole fraction): 0.0254
In ethylene glycol, 303.15 K
  solubility (mole fraction): 0.0301
In ethylene glycol, 308.15 K
  solubility (mole fraction): 0.0361
In ethylene glycol, 313.15 K
  solubility (mole fraction): 0.0428
In ethylene glycol, 318.15 K
  solubility (mole fraction): 0.0503
In ethylene glycol, 323.15 K
  solubility (mole fraction): 0.0596
In ethylene glycol, 328.15 K
  solubility (mole fraction): 0.0723
In isobutanol, 283.15 K
  solubility (mole fraction): 0.025
In isobutanol, 288.15 K
  solubility (mole fraction): 0.0282
In isobutanol, 293.15 K
  solubility (mole fraction): 0.0323
In isobutanol, 298.15 K
  solubility (mole fraction): 0.0389
In isobutanol, 303.15 K
  solubility (mole fraction): 0.0464
In isobutanol, 308.15 K
  solubility (mole fraction): 0.0554
In isobutanol, 313.15 K
  solubility (mole fraction): 0.0658
In isobutanol, 318.15 K
  solubility (mole fraction): 0.0776
In isobutanol, 323.15 K
  solubility (mole fraction): 0.0917
In isobutanol, 328.15 K
  solubility (mole fraction): 0.11
In isopropanol, 283.15 K
  solubility (mole fraction): 0.028
In isopropanol, 288.15 K
  solubility (mole fraction): 0.031
In isopropanol, 293.15 K
  solubility (mole fraction): 0.0373
In isopropanol, 298.15 K
  solubility (mole fraction): 0.0455
In isopropanol, 303.15 K
  solubility (mole fraction): 0.0542
In isopropanol, 308.15 K
  solubility (mole fraction): 0.065
In isopropanol, 313.15 K
  solubility (mole fraction): 0.0768
In isopropanol, 318.15 K
  solubility (mole fraction): 0.0914
In isopropanol, 323.15 K
  solubility (mole fraction): 0.109
In isopropanol, 328.15 K
  solubility (mole fraction): 0.131
In methanol, 283.15 K
  solubility (mole fraction): 0.125
In methanol, 288.15 K
  solubility (mole fraction): 0.137
In methanol, 293.15 K
  solubility (mole fraction): 0.155
In methanol, 298.15 K
  solubility (mole fraction): 0.174
In methanol, 303.15 K
  solubility (mole fraction): 0.195
In methanol, 308.15 K
  solubility (mole fraction): 0.218
In methanol, 313.15 K
  solubility (mole fraction): 0.245
In methanol, 318.15 K
  solubility (mole fraction): 0.274
In methanol, 323.15 K
  solubility (mole fraction): 0.305
In methanol, 328.15 K
  solubility (mole fraction): 0.341
In n-butanol, 283.15 K
  solubility (mole fraction): 0.0498
In n-butanol, 288.15 K
  solubility (mole fraction): 0.0564
In n-butanol, 293.15 K
  solubility (mole fraction): 0.0653
In n-butanol, 298.15 K
  solubility (mole fraction): 0.0758
In n-butanol, 303.15 K
  solubility (mole fraction): 0.0877
In n-butanol, 308.15 K
  solubility (mole fraction): 0.101
In n-butanol, 313.15 K
  solubility (mole fraction): 0.117
In n-butanol, 318.15 K
  solubility (mole fraction): 0.135
In n-butanol, 323.15 K
  solubility (mole fraction): 0.156
In n-butanol, 328.15 K
  solubility (mole fraction): 0.178
In n-propanol, 283.15 K
  solubility (mole fraction): 0.0518
In n-propanol, 288.15 K
  solubility (mole fraction): 0.0589
In n-propanol, 293.15 K
  solubility (mole fraction): 0.0683
In n-propanol, 298.15 K
  solubility (mole fraction): 0.0784
In n-propanol, 303.15 K
  solubility (mole fraction): 0.0916
In n-propanol, 308.15 K
  solubility (mole fraction): 0.106
In n-propanol, 313.15 K
  solubility (mole fraction): 0.124
In n-propanol, 318.15 K
  solubility (mole fraction): 0.145
In n-propanol, 323.15 K
  solubility (mole fraction): 0.168
In n-propanol, 328.15 K
  solubility (mole fraction): 0.193
In water, 283.15 K
  solubility (mole fraction): 0.000141
In water, 288.15 K
  solubility (mole fraction): 0.00017
In water, 293.15 K
  solubility (mole fraction): 0.000209
In water, 298.15 K
  solubility (mole fraction): 0.000264
In water, 303.15 K
  solubility (mole fraction): 0.000336
In water, 308.15 K
  solubility (mole fraction): 0.000422
In water, 313.15 K
  solubility (mole fraction): 0.000528
In water, 318.15 K
  solubility (mole fraction): 0.000663
In water, 323.15 K
  solubility (mole fraction): 0.000816
In water, 328.15 K
  solubility (mole fraction): 0.00101
